In patent publication US9193722B2, “Tri-cyclic pyrazolopyridine kinase inhibitors” (Vertex Pharmaceuticals Incorporated, priority 2008, dated 2015):
pKi: −log10 of the molar value.

Tests used:
Assay type in all cases: biochemical
[1] = molecular target: PKC theta kinase (Homo sapiens, UniProt Q04759); assay: PKC theta kinase inhibition, coupled-enzyme (NADH absorbance) assay, Ki; settings: 240 μM ATP, 18 nM PKC theta kinase, 30° C.
How it was run: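 Coupled-enzyme kinase assay following NADH absorbance at 340 nm, in 100 mM HEPES pH 7.5, 10 mM MgCl2, 25 mM NaCl, 0.1 mM EDTA, 0.01% Brij. Compound in DMSO preincubated with enzyme 10 min at 30 °C. Ki from initial rates by non-linear regression.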

[2] = molecular target: PKC delta kinase (Homo sapiens, UniProt Q05655); assay: PKC delta kinase inhibition, coupled-enzyme (NADH absorbance) assay, Ki; settings: 150 μM ATP, 46 nM PKC delta kinase, 30° C.; read-out: Ki PKC delta
Chain of PKC delta kinase (Q05655 whole entry): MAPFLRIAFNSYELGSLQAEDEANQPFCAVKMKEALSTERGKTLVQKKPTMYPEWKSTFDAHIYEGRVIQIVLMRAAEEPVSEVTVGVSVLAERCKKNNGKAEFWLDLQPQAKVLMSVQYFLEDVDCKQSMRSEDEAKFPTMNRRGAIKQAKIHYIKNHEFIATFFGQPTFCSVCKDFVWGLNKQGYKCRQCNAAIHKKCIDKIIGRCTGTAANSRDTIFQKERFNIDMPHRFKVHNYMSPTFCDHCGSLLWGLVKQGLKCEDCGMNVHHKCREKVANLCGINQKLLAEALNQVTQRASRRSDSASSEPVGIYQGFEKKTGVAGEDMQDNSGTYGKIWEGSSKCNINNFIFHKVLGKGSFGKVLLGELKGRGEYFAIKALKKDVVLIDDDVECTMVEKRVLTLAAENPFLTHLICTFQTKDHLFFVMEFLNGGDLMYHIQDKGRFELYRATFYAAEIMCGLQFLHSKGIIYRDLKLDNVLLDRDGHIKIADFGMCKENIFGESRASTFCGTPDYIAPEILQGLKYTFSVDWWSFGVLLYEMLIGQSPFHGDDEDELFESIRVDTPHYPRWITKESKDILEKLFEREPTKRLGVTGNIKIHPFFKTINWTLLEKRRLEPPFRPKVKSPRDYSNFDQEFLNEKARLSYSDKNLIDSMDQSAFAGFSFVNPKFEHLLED
How it was run: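 PKC delta in 100 mM HEPES pH 7.5, 10 mM MgCl2, 25 mM NaCl, 0.1 mM EDTA, 0.01% Brij, equilibrated 10 min at 30° C with compound from DMSO stock. Started with ATP at 150 μM final; NADH-coupled absorbance at 340 nm followed 15 min at 30° C. Ki from initial rates by non-linear regression.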

[3] = molecular target: PKC alpha kinase (Homo sapiens, UniProt P17252); assay: PKC alpha kinase inhibition, coupled-enzyme (NADH absorbance) assay, Ki; settings: 130 μM ATP, 4.5 nM PKC alpha kinase, 30° C.
How it was run: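 Enzyme in 100 mM HEPES pH 7.5, 10 mM MgCl2, 100 μM CaCl2, 0.01% Brij, preincubated with compound 10 min at 30 °C. Reaction started with 130 μM ATP (final); NADH consumption followed at 340 nm for 15 min at 30 °C. Ki fitted by non-linear regression of initial rates.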

Chain of PKC theta kinase (Q04759 whole entry): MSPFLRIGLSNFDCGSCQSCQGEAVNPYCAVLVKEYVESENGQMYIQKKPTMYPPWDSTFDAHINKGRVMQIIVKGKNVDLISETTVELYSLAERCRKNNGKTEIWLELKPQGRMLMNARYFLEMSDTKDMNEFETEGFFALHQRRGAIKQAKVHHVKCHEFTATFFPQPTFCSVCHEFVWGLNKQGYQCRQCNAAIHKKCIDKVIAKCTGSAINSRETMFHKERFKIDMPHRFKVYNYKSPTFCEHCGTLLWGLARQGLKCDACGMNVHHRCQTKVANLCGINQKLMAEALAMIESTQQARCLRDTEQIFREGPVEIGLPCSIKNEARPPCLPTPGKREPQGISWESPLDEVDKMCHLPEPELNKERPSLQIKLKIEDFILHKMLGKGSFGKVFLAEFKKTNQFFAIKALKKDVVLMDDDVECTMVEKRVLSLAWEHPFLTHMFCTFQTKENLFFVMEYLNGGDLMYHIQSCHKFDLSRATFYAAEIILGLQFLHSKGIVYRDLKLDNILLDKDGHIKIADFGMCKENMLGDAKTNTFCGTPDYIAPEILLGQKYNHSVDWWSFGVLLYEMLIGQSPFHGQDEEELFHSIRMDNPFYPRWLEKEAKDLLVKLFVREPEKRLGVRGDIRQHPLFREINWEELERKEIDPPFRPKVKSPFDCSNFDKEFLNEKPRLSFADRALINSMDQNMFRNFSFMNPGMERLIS

pKi [1]: > 9.00
pKi [2]: > 6.30
pKi [3]: > 5.55
SMILES: CC(C)(F)C(C)(O)C1CN(c2ccc(F)c(-c3n[nH]c4ncccc34)n2)CCN1 (stereo not drawn) [Compound 248]
